# Active and inactive are the calls of the source. The rule behind the calls is not given here.
# Assays:
# Assay in all cases: CXCR6 receptor antagonists, dose response, cell-based, beta-arrestin, DiscoveRx, APJ panel, uHTS hits (AID 624129)
# [1] = molecular target: C-X-C chemokine receptor type 6 (Homo sapiens) (UniProt O00574); conditions: CXCR6 beta-arrestin (DiscoveRx) antagonist cell assay; for inhibition: CXCR6, run 1, dose range 2, at 80 µM (top of the series)
# [2] = molecular target: Beta-galactosidase (Escherichia coli) (UniProt Q8VNN2); conditions: CXCR6 beta-arrestin (DiscoveRx) antagonist cell assay, b-galactosidase
# Chain of Beta-galactosidase (Escherichia coli) (Q8VNN2 whole entry, looked up): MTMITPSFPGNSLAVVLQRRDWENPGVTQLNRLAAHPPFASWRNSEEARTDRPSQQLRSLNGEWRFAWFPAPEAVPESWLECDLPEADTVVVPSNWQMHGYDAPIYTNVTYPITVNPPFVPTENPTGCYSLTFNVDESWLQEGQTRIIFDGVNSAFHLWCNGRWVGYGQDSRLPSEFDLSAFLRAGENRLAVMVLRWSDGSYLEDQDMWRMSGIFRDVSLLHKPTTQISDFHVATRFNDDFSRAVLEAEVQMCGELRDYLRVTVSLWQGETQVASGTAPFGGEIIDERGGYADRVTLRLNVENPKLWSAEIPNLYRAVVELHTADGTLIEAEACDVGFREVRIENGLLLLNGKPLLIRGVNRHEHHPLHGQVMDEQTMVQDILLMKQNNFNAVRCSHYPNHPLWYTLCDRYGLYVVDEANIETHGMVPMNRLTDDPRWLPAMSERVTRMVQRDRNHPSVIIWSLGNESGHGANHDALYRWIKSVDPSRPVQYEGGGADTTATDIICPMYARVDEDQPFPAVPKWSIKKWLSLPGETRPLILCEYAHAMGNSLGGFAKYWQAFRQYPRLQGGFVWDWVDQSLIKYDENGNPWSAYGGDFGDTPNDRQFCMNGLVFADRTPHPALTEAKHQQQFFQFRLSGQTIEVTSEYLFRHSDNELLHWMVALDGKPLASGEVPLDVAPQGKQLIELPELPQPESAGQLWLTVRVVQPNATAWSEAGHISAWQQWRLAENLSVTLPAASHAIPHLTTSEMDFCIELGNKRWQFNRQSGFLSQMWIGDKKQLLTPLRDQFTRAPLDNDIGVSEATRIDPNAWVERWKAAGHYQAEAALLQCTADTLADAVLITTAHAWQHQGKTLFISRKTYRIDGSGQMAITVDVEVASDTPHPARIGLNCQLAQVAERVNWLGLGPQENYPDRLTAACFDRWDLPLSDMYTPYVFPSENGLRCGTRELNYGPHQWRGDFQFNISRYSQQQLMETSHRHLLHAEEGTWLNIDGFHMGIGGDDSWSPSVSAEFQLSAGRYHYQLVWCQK
# [3] = molecular target: Apelin receptor (Homo sapiens) (UniProt P35414); conditions: CXCR6 beta-arrestin (DiscoveRx) antagonist cell assay, APJ
# [4] = molecular target: C-C chemokine receptor type 6 (Homo sapiens) (UniProt P51684); conditions: CXCR6 beta-arrestin (DiscoveRx) antagonist cell assay
# [5] = CXCR6, dose range 1, mean IC50 across replicates
# [6] = dose range 1, mean IC50 across replicates
# [7] = CCR6, dose range 1, mean IC50 across replicates
# Chain of C-X-C chemokine receptor type 6 (Homo sapiens) (O00574 whole entry, looked up): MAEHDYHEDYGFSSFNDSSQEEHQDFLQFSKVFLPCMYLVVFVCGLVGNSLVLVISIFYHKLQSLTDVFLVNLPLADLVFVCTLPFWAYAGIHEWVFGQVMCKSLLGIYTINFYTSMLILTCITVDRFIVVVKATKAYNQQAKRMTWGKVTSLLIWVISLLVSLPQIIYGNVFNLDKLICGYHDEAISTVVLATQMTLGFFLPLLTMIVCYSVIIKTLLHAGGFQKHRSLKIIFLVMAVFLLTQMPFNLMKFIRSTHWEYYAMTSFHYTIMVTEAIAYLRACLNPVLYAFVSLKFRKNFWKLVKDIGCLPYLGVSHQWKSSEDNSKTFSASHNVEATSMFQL
Structure (SMILES),"IC50 ([1]; CXCR6, dose range 1)","IC50 [1, 5]","IC50 ([1]; CXCR6, run 1, dose range 2)","IC50 ([1]; CXCR6, run 2, dose range 1)","IC50 ([1]; CXCR6, run 2, dose range 2)",IC50 ([2]; dose range 1),"IC50 [2, 6]",IC50 ([3]; dose range 1),"IC50 [3, 6]","IC50 ([3]; run 2, dose range 1)","IC50 ([3]; run 3, dose range 1)","IC50 ([4]; CCR6, dose range 1)","IC50 [4, 7]","IC50 ([4]; CCR6, run 2, dose range 1)",inhibition [1]
O=C1C(Cc2ccccc2)Nc2ncnc(N3CCN(c4ccccc4)CC3)c2N1Cc1ccc(Cl)cc1 (stereo unspecified),2.01 µM,1.94 µM,1.77 µM,2.04 µM,1.94 µM,> 80 µM (inactive),> 80 µM,inactive,20.2 µM,5.81 µM,53.2 µM,3.28 µM,2.67 µM,2.06 µM,–
CCC(=O)OCOc1ccc(/C=C2/CCC(CN(C)C)C2=O)cc1 (stereo unspecified),inactive,12.6 µM,–,10.2 µM,–,> 80 µM (inactive),> 80 µM,17.2 µM,16.8 µM,15.2 µM,17.9 µM,10.3 µM,11.1 µM,11.9 µM,124%
O=Cc1s/c(=N\S(=O)(=O)c2ccccc2)n(CCCCl)c1Cl,4.95 µM,4.83 µM,5.13 µM,4.89 µM,4.35 µM,15.9 µM,15.9 µM,6.78 µM,6.28 µM,5.42 µM,6.63 µM,2.79 µM,3.11 µM,3.43 µM,–
NC(=S)N/N=C/c1ncc(C(F)(F)F)cc1Cl,7.01 µM,5.44 µM,3.67 µM,6.86 µM,4.23 µM,> 80 µM (inactive),> 80 µM,6.82 µM,7.73 µM,8.7 µM,7.68 µM,6 µM,6.7 µM,7.41 µM,–
S=C(NCCCN1CCOCC1)Nc1ccc(Cl)cc1,inactive,12.9 µM,–,11 µM,–,26.5 µM,26.5 µM,13.7 µM,14.5 µM,16 µM,13.7 µM,7.62 µM,9.33 µM,11 µM,118%
Cn1nc([N+](=O)[O-])nc1Sc1cccc2cccnc12,inactive,12.5 µM,11.3 µM,14.2 µM,9.55 µM,> 80 µM (inactive),> 80 µM,11 µM,11.9 µM,11.4 µM,13.1 µM,12.1 µM,13.7 µM,15.2 µM,–
CCn1c(=O)c([N+](=O)[O-])c(Cl)c2ccccc21,4.19 µM,7.64 µM,4.43 µM,17.8 µM,4.13 µM,> 80 µM (inactive),> 80 µM,31.9 µM,35.8 µM,21.3 µM,54.3 µM,3.29 µM,3.6 µM,3.91 µM,–

# More lines, now with the values ahead:
"IC50 ([1]; CXCR6, dose range 1)","IC50 [1, 5]","IC50 ([1]; CXCR6, run 1, dose range 2)","IC50 ([1]; CXCR6, run 2, dose range 1)","IC50 ([1]; CXCR6, run 2, dose range 2)",IC50 ([2]; dose range 1),"IC50 [2, 6]",IC50 ([3]; dose range 1),"IC50 [3, 6]","IC50 ([3]; run 2, dose range 1)","IC50 ([3]; run 3, dose range 1)","IC50 ([4]; CCR6, dose range 1)","IC50 [4, 7]","IC50 ([4]; CCR6, run 2, dose range 1)",inhibition [1],Structure (SMILES)
> 80 µM (inactive),> 80 µM,–,> 80 µM,–,> 80 µM (inactive),> 80 µM,–,> 80 µM,> 80 µM,> 80 µM,–,> 80 µM,> 80 µM,-26.4%,Cc1cccc(C(=O)Nc2ccc(C(=O)/C=C/c3ccncc3)cc2)c1
4.85 µM,4.74 µM,2.69 µM,6.67 µM,> 79 µM,> 80 µM (inactive),> 80 µM,2.79 µM,7.52 µM,15.3 µM,4.43 µM,2.42 µM,3.22 µM,4.01 µM,–,C/C(=N\NC(=O)c1cc(-c2cccs2)nc2ccccc12)c1ccccn1
> 80 µM (inactive),> 80 µM,–,> 80 µM,–,> 80 µM (inactive),> 80 µM,–,> 80 µM,> 80 µM,> 80 µM,–,> 80 µM,> 80 µM,-8.52%,CCOC(=O)c1c(SCCN2CCCC2)n(-c2ccccc2)c(=S)n(-c2ccccc2)c1=O
inactive,18.4 µM,9.71 µM,29.4 µM,8.43 µM,34 µM,34 µM,23.9 µM,21.3 µM,16.1 µM,23.9 µM,13.7 µM,16.2 µM,18.7 µM,–,C/C(=N\NC(=O)Cn1c(-c2ccccn2)nc2ccccc21)c1ccccc1

# From PubChem BioAssay AID624129 (Sanford-Burnham Center for Chemical Genomics, 2012)
